Where no end group is shown, it is not given here.
Experiments:
[1] = tested on: diacylglycerol (DAG) levels, downstream signaling of ADGRL1, C2C12 skeletal cell line; assay: Mouse diacylglycerol (DAG) ELISA in C2C12 cell lysates; assay type: cell-based; settings: TCAP-1 100 nM, after 60 minutes, p<0.0001
Procedure: (§1) Immortalized murine skeletal cell line C2C12 cells were used for all in vitro studies. Cells were maintained at 60-70% confluency with Dulbecco’s Modified Eagle Medium (DMEM) supplemented with 20% fetal bovine serum (FBS) and penicillin/streptomycin antibiotic combination. To induce differentiation, the media was changed to DMEM supplemented with 10% horse serum and penicillin/streptomycin antibiotic combination, and cells were allowed to differentiate for 6 days (media replaced every 24 h). For treatment, cells were serum starved for 3 h and then treated with either vehicle (ddH20) or TCAP-1 (100 nM).
(§2) The protocols provided by commercial DAG and IP3 assays (MyBiosource, San Diego, California USA). Briefly, immortalized mouse C2C12 cells were prepared using the TCAP-treatment protocol described previously. Cells were added to a microELISA plate coated with purified mouse DAG or IP3 antibodies, respectively. Subsequently, 3,3′,5,5′-tetramethylbenzidine (TMB) solution was added to detect the HRP-conjugates as the colour changes. Finally, a sulphuric acid solution was added to terminate the reaction. The absorbance change was measured at a wavelength of 450 nm using a spectrophotometer (SpectraMax Plus).

[2] = tested on: inositol triphosphate (IP3) levels, downstream signaling of ADGRL1, C2C12 skeletal cell line; assay: Mouse inositol triphosphate (IP3) ELISA in C2C12 cell lysates; assay type: cell-based; settings: TCAP-1 100 nM, after 15 minutes, p<0.0001
Procedure: as §1, §2

[3] = tested on: C2C12 murine skeletal muscle cells; assay: Radioactive glucose (3H-2-deoxyglucose) uptake in vitro; assay type: cell-based, mouse; settings: 100 nM, at 30 and 45 minutes (p<0.0001, p<0.001)
Procedure: as §1
Immortalized murine skeletal C2C12 cells were allowed to proliferate and differentiate and glucose uptake protocol was followed as previously described with minor modifications (Maher et al., 1991; Uemura & Greenlee, 2006). At day 6 post-plating, cells were washed 2x with Locke’s buffer (154 mM NaCl, 5.6 mM KCI, 2.3 mM CaCl2, 3.6 mM NaHCOs, 5 mM HEPES) without serum and glucose. The culture was incubated in the Locke’s buffer for 1 h at 37° C. followed by exposure to 100 nM insulin, 100 nM TCAP-1, 100 nM SC-TCAP-1, or saline. 3H-2-deoxyglucose (0.5 µCi/ml) was added to culture 5 min before termination of treatment exposure. […] Cell lysates were used for determination of radioactivity by a beta liquid scintillation counter (Beckman Coulter).

hind limb muscle = assay: Functional positron emission tomography (fPET) of 18F-deoxyglucose uptake; assay type: in vivo, Wistar rats; settings: single subcutaneous 10 nmoles/kg, 3 days later, p<0.1, n=5
Procedure: Male adult Sprague-Dawley rats (-350 g) were used for the muscle function studies. Male adult Wistar rats (-250 g) were used for the functional positron emission tomography tests. Functional Positron emission tomography (fPET) was performed using a Siemens Inveon microPET small animal PET scanner, and [18F]-2-deoxyglucose (FDG) radiotracer (IBA Molecular) and protocol was followed as previously described (Hogg et al., manuscript in review). PET scans were acquired on all of the animals 3 days post-dosing. The animals were injected intravenously with approximately 1mCi of FDG. The FDG uptake occurred under anesthesia for 90 min. Body temperature was maintained with a thermostat-regulated recirculating water heated pad. Static emission data was acquired for 20 minutes. […] The total PET counts were calculated from all voxels within the segmented volumes of interest. (Percent injected dose (%ID)) was calculated by normalizing the total counts in each tissue of interest at each time point, to the whole body total counts calculated over 1 min from the whole body max uptake time point, for each animal, during the first 90 min post FDG administration.) These images were then compiled into 3D projections, thus allowing for accurate analyses of muscle tissue. Fluorescence of the mean pixel was calibrated to volume of muscle being analyzed (mean pixel fluorescence/mm3).

tibialis anterior muscle [4] = assay: Electrical muscle stimulation, 6-minute fatigue protocol; assay type: in vivo, Sprague-Dawley rats
Procedure: Male adult Sprague-Dawley rats (-350 g) were used for the muscle function studies. Male adult Wistar rats (-250 g) were used for the functional positron emission tomography tests. Electrical muscle stimulation protocol was followed as described by Holwerda and Locke (2014) with minor modifications. Briefly, sixteen male adult Sprague-Dawley rats ([…]) were allowed to acclimate for 1 week on a 12:12 LD cycle. For 5 days daily, half of the rats (n=8) were treated with physiological saline control, and the other half (n=8) was treated with mouse-TCAP-1 (10 nmoles/kg) by subcutaneous injection in the interscapular region. Three days from the last treatment, animals were anesthetized with 5% isofluorane in 1 L/min O2, and subsequently positioned into testing apparatus. A 25 g needle was inserted through the soft tissue of the knee in order to ensure a stable position. The foot was placed on the lever attached to a servomotor and taped in position. Electrodes were placed below the skin but adjacent to the tibialis anterior (TA) muscle. The correct voltages for peak tetanic tension was established by increasing voltage by 1 volt increments. The test began with a single tetanus and single twitch protocol to establish baseline. The 6-min fatigue protocol (8 V, 200 Hz, 300 ms) was started. Immediately following the termination of the protocol, tetanic and twitch tensions were recorded at 0, 1, and 5 mins. Animals were immediately sacrificed after recovery measurements were recorded.

tibialis anterior muscle [5] = assay: Oxidative capacity, NADH staining of muscle cryosections; assay type: in vivo, Sprague-Dawley rats; settings: 10 nmoles/kg for 5 days
Procedure: Tibialis anterior muscles from the treated Sprague-Dawley rats were flash-frozen in liquid-nitrogen-cooled isopentane until cryosectioned at 10 µm thickness. Cryosections were then washed 2X with PBS, and then 0.2% NBT solution in PBS containing 0.1% NADH was added and allowed to incubate for 30 min at 37° C. Slides were washed 2X in PBS before mounted with cryoseal and imaged with Canon camera and Leica bright-field microscope at 100x magnification. Images were analyzed on Image J software and frequency distribution curves were constructed, where the darker the pixel represents higher NADH levels. Frequency curves were built based on average of five pictures per tissue, with a minimum of three tissues analysed for each group.

C2C12 myotubes [6] = assay: Calcium imaging in live C2C12 cells (fluo-4); assay type: cell-based, mouse; settings: caffeine 4 mM, TCAP-1 100 nM pre-treatment for 1 hour; for peak in cytosolic calcium on caffeine application (fluo-4 fluorescence): compared with caffeine alone; for decline of cytosolic calcium after the caffeine peak: over 5 minutes
Procedure: For live-cell fluorescence experiments, immortalized murine C2C12 skeletal muscle cells were grown and fully differentiated on Poly-D-lysine coated 25 mm round No. 1 glass coverslips (Warner Instruments, Hamden, CT, USA). Cells were grown in Dulbecco’s Modified Eagle Medium (DMEM) supplemented with 20% fetal bovine serum (FBS), 100 U/ml penicillin and 100 µg/ml streptomycin (Invitrogen, Burlington, ON, Canada), and stimulated differentiation with DMEM supplemented with 10% horse serum (HS), 100 U/ml penicillin and 100 µg/ml streptomycin (Invitrogen, Burlington, ON, Canada. Changes in intracellular calcium were assessed using the membrane-permeable calcium sensitive fluorescent indicator fluo-4, AM (Invitrogen, Burlington, ON, Canada). Cells were loaded with fluo-4 by incubating a single coverslip in DMEM containing 10 µM fluo-4 (from a 1 mM stock solution in DMSO) for 30 min (37° C.) followed by a 15 min wash in Locke’s Buffer containing (in mM): 154 mM NaCl, 4 mM NaHCOs, 5 mM KCI, 2.3 mM CaCl2, 1 mM MgCl2, 5 mM glucose and 10 mM Hepes (pH 7.4); osmolarity 305-310 mOsmol at 22° C. During loading, the acetate groups on fluo-4 are removed by intracellular esterases reducing dye leakage. In experiments assessing changes in intracellular calcium, coverslips were placed in a flow-through bath chamber (RC-40HP, Warner Instruments, Hamden, CT, USA) of an inverted microscope (Axio Observer Z1, Zeiss, Toronto, ON, Canada) equipped with a 40× oil immersion objective. Cells were continuously bulk perfused with Locke’s buffer via a gravity drip perfusion system at a rate of 2-3 ml min-1 and experiments were conducted at a room temperature (RT) of 22° C. Changes in fluo-4 fluorescence was imaged using a green fluorescent protein (GFP) filter set (Semrock, Rochester, NY, USA) and a X-Cite 120 fluorescence illumination system (Excelitas Technologies, Mississauga, ON, Canada), controlled by Volocity 4.0 imaging software (Quorum Technologies Inc., Guelph, ON, Canada). Fluorescence emissions were detected with an Orca-ER Hamamatsu B/W CCD digital camera (Hamamatsu, Middlesex, NJ, USA). Fluo-4 was excited with a wavelength of 480 nm for 100 ms every 5 sec and fluorescence emission was measured at wavelength of 516 nm. Caffeine (4 mM; Sigma Aldrich, Oakville, ON) was applied to C2C12 myotubes to stimulate calcium release from the sarcoplasmic reticulum. Cells were either pre-treated with TCAP-1 (100 nM) for 1 hour before stimulation with caffeine. Using velocity 4.0 imaging software, multiple regions of interests (ROIs) were taken from each coverslip to be analysed.

C2C12 myotubes [7] = assay: Mitochondrial membrane potential in C2C12 cells with Rhodamine-123; assay type: cell-based, mouse; settings: caffeine 4 mM; TCAP-1 100 nM pre-treatment for 1 hour, compared with caffeine alone
Procedure: C2C12 myotubes were cultured as previously described above. Changes in mitochondrial membrane potential were assessed using fluorescent indicator Rhodamine123 (R123). Cells were loaded with R123 by incubating a single coverslip in DMEM containing 5 µM R123 (from a 1 mM stock solution in DMSO) for 30 min (37° C.) followed by a 15 min wash in Locke’s Buffer containing (in mM): 154 mM NaCl, 4 mM NaHCOs, 5 mM KCI, 2.3 mM CaCl2, 1 mM MgCl2, 5 mM glucose and 10 mM Hepes (pH 7.4); osmolarity 305-310 mOsmol at 22° C. […] Changes in R123 fluorescence was imaged using a green fluorescent protein (GFP) filter set (Semrock, Rochester, NY, USA) and a X-Cite 120 fluorescence illumination system (Excelitas Technologies, Mississauga, ON, Canada), controlled by Volocity 4.0 imaging software (Quorum Technologies Inc., Guelph, ON, Canada). Fluorescence emissions were detected with an Orca-ER Hamamatsu B/W CCD digital camera (Hamamatsu, Middlesex, NJ, USA). R123 was excited with a wavelength of 480 nm for 100 ms every 5 sec and fluorescence emission was measured at wavelength of 516 nm. […] Using velocity 4.0 imaging software, multiple regions of interests (ROIs) were taken from each coverslip to be analysed.

neurons = settings: via increases of glucose transporter GLUT-3 to the plasma membrane (unpublished); cited from earlier work
[8] = 10 nmoles/kg s.c. for 5 days, baseline

Row | Compound | DAG levels compared to vehicle treatment [1] | IP3 levels [2] | 3H-DG uptake into C2C12 cells vs vehicle [3] | 18F-DG uptake in hind limb muscles (fPET fluorescence) (hind limb muscle) | fatigue response curve vs vehicle (tibialis anterior muscle [4]; 10 nmoles/kg s.c. for 5 days) | tetanic force production throughout fatigue or recovery vs vehicle (tibialis anterior muscle [4]; 10 nmoles/kg s.c. for 5 days) | force generated in recovery after fatigue protocol (tibialis anterior muscle [4]; 10 nmoles/kg s.c. for 5 days, after 6-minute fatigue protocol) | contraction relaxation rate at baseline vs vehicle (tibialis anterior muscle [4]; [8]) | contraction velocity at baseline vs vehicle (tibialis anterior muscle [4]; [8]) | half relaxation time (1/2RT) over fatigue protocol (tibialis anterior muscle [4]; 10 nmoles/kg s.c. for 5 days, compared to vehicle, p<0.05) | muscle mass vs vehicle (tibialis anterior muscle [4]; 10 nmoles/kg s.c. for 5 days, extracted muscles) | twitch peak force at pre-test (baseline) vs vehicle (tibialis anterior muscle [4]; 10 nmoles/kg s.c. for 5 days, tested 3 days after last injection, p<0.05) | rate of the contractions (max dx/dt) over fatigue protocol (tibialis anterior muscle [4]; 10 nmoles/kg s.c. for 5 days, vehicle group steadily declined, p<0.05) | fiber size vs vehicle (tibialis anterior muscle [4]; data not shown) | NADH staining (oxidative capacity), unstimulated control limb, vs vehicle (tibialis anterior muscle [5]; contralateral control limb, p<0.05) | TCAP-1-mediated increase in oxidative capacity (NADH), stimulated limb, vs vehicle (tibialis anterior muscle [5]; exercised (stimulated) limb, p=0.1) | peak in cytosolic calcium on caffeine application (fluo-4 fluorescence) (C2C12 myotubes [6]) | decline of cytosolic calcium after the caffeine peak (C2C12 myotubes [6]) | mitochondrial membrane potential (Rhodamine123 fluorescence) (C2C12 myotubes [7]) | glucose uptake in neurons (neurons)
1 | TCAP-1: 41-mer peptide from the C-terminal of teneurin-1, synthesized amidated, suspended in 0.9% saline for subcutaneous injection (QQLLGTGRVQGYDGYFVLSVEQYLELSDSANNIHFMRQSEI-NH2) | significantly decreased | significantly reduced | significantly increased | significant increase | responded comparably | responded comparably | increased | increased | significantly slower | sustained | no difference | significantly higher | maintained throughout the protocol | no difference | significant increased frequency of a stronger NADH-positive staining | maintained | significantly lower peak | significantly faster decline | significantly higher membrane depolarization | significantly increases glucose uptake
2 | Cn1c(=O)c2c(ncn2C)n(C)c1=O [caffeine, Caffeine, reference compound] | – | – | – | – | – | – | – | – | – | – | – | – | – | – | – | – | strong peak in cytosolic calcium | gradual decrease over 5 minutes | mitochondrial membrane depolarization | –
